Usually IC50 stands for the midpoint of a concentration-inhibition curve. For orientation: EC50 means the concentration needed to bring the measured effect to its halfway point. Broadly, the CC50 is the concentration giving 50% cytotoxicity.

Each structure is given as a SMILES string. The source made the active and inactive calls. The rule behind the calls is not given here. Where only a bound is given, the exact number is not on record here.

The target of data set [1] is Human immunodeficiency virus type 1 reverse transcriptase (Human immunodeficiency virus 1, UniProt Q72547). Put plainly: Inhibition of HIV1 3B reverse transcriptase after 30 mins.
Data set [2] is described as follows: Inhibition of HIV2 ROD reverse transcriptase after 30 mins. Set-up: species or system Human immunodeficiency virus 2.
Another data set concerns Human alphaherpesvirus 1. The data set is described as follows: Antiviral activity against Herpes simplex virus type 1 infected in HEL cells. It counts as functional, organism-based.
The test system of another data set is Human alphaherpesvirus 2. Put plainly: Antiviral activity against Herpes simplex virus type 2 infected in HEL cells. It counts as functional, organism-based.
A further data set relates to Vaccinia virus. The data set is described as follows: Antiviral activity against Vaccinia virus infected in HEL cells. The format is functional, organism-based. The note with it: Orthopoxvirus vaccinia.
Data set [3] relates to Vesicular stomatitis virus. The data set is described as follows: Antiviral activity against Vesicular stomatitis virus infected in HEL cells. The format is functional, organism-based.
The test system of a further data set is Human respirovirus 3. The data set is described as follows: Antiviral activity against Parainfluenza virus type 3 infected in african green monkey Vero cells. The format is functional, organism-based.
The subject of data set [4] is Mammalian orthoreovirus 1. The data set is described as follows: Antiviral activity against Reovirus 1 infected in african green monkey Vero cells. The format is functional, organism-based.
For a further data set, the system named is Sindbis virus. Put plainly: Antiviral activity against Sindbis virus infected in african green monkey Vero cells. It counts as functional, organism-based.
Data set [5] concerns Coxsackievirus B4. Put plainly: Antiviral activity against Coxsackievirus B4 infected in african green monkey Vero cells. The format is functional, organism-based.
The next data set has as its system Punta Toro virus. Put plainly: Antiviral activity against Punta Toro virus infected in african green monkey Vero cells. It counts as functional, organism-based.
Data set [6] has as its system Vesicular stomatitis virus. Put plainly: Antiviral activity against Vesicular stomatitis virus infected in human HeLa cells. It counts as functional, organism-based.
Data set [7] deals with Respiratory syncytial virus. The data set is described as follows: Antiviral activity against Respiratory syncytial virus infected in human HeLa cells. It counts as functional, organism-based.
Data set [8] deals with Coxsackievirus B4. The data set is described as follows: Antiviral activity against Coxsackievirus B4 infected in human HeLa cells. It counts as functional, organism-based.
For the next data set, the system named is Feline coronavirus. The data set is described as follows: Antiviral activity against Feline coronavirus infected in crandel feline kidney cells. It counts as functional, organism-based.
Data set [9] has as its system Influenza A virus. Put plainly: Antiviral activity against Influenza virus type A H1N1 infected in MDCK cells. It counts as functional, organism-based.
The test system of data set [10] is Influenza A virus. The data set is described as follows: Antiviral activity against Influenza virus type A H3N2 infected in MDCK cells. The format is functional, organism-based.
In another data set the test system is Influenza B virus. Put plainly: Antiviral activity against Influenza virus type B infected in MDCK cells. The format is functional, organism-based.
In data set [11] the test system is Human immunodeficiency virus 1. The data set is described as follows: Antiviral activity against HIV1 3B infected in human CEM cells assessed as inhibition of virus-induced cytopathicity after 4 days. The format is functional, organism-based. The note with it: Human immunodeficiency virus 1, 3B, CCRF-CEM, 96 h. (In general: Protection from cytopathic effect is a common read-out in antiviral testing.)

In data set [12] the test system is Human immunodeficiency virus 2. Put plainly: Antiviral activity against HIV2 ROD infected in human CEM cells assessed as inhibition of virus-induced cytopathicity after 4 days. The format is functional, organism-based. The following applies: Human immunodeficiency virus 2, ROD, CCRF-CEM, 96 h.
The subject of the next data set is CCRF-CEM. The data set is described as follows: Cytotoxicity against HIV-infected human CEM cells. The format is cell-based. The following applies: ccrf-cem.
The nature of data set [13]: Selectivity index, ratio of CC50 for human CEM cells to EC50 for HIV1 3B. It counts as toxicity, cell-based, CCRF-CEM. The note with it: read-out: Ratio CC50/EC50.

In the case of `Cc1cc(C)nc(N2C(=O)CS[C@@H]2C23CC4CC(CC(C4)C2)C3)c1`, the IC50 in data set [1] is 13.4 µM; in data set [2], > 600 µM. Also, the result (in the data set on Human alphaherpesvirus 1; in the data set with Human alphaherpesvirus 2; with Vaccinia virus; in data set [3]; with Human respirovirus 3; in data set [4]) was inactive. Further, the result (in the data set with Sindbis virus; in the data set on Coxsackievirus B4 [5]; with Punta Toro virus; in [6]; in [7]; with Coxsackievirus B4 [8]) was inactive. Also, the outcome in the data set with Feline coronavirus, in the data set on Influenza A virus [9], in the data set on Influenza A virus [10] and with Influenza B virus was inactive.
For the compound `Cc1cc(Cl)nc(N2C(=O)CSC2CC23CC4CC(CC(C4)C2)C3)n1` (stereo not drawn), the EC50 was > 53 µM in [11] and ≥ 53 µM in data set [12]. For the same compound, in the data set with CCRF-CEM, half-maximal cytotoxicity (CC50) was put at 102 µM. Further, in data set [13], the selectivity ratio is < 1.9. The outcome (with Human alphaherpesvirus 1; in the data set with Human alphaherpesvirus 2; in the data set with Vaccinia virus; in [3]; with Human respirovirus 3; in data set [4]) was inactive. Further, the result (in the data set on Sindbis virus; with Coxsackievirus B4 [5]; in the data set with Punta Toro virus; in [6]; in data set [7]; in the data set with Coxsackievirus B4 [8]) was inactive. The outcome with Feline coronavirus, with Influenza A virus [9], with Influenza A virus [10] and with Influenza B virus was inactive.
With `CN(C)CCN1C(=O)CSC1CC12CC3CC(CC(C3)C1)C2` (stereo not drawn), the values for the EC50 in data set [11] and in data set [12] were 53 µM and ≥ 62 µM, respectively. This compound returned a cytotoxic concentration (CC50) in the data set with CCRF-CEM of 77 µM. In addition, the selectivity ratio in data set [13] was < 1.4. For the same compound, the outcome (in the data set with Human alphaherpesvirus 1; in the data set on Human alphaherpesvirus 2; with Vaccinia virus; in data set [3]; in the data set with Human respirovirus 3; in data set [4]) was inactive. The result (in the data set on Sindbis virus; with Coxsackievirus B4 [5]; in the data set on Punta Toro virus; in [6]; in data set [7]; in the data set with Coxsackievirus B4 [8]) was inactive. The result in the data set with Feline coronavirus, with Influenza A virus [9], with Influenza A virus [10] and in the data set with Influenza B virus was inactive.
In the case of `O=C1CSC(c2c(F)cccc2Cl)N1CC12CC3CC(CC(C3)C1)C2` (stereo not drawn), the half-maximal effective concentration (EC50) in data set [11] was 2 µM; in data set [12], ≥ 10.5 µM. Also, the 50% cytotoxic concentration (CC50) in the data set with CCRF-CEM amounted to 20.2 µM. Moreover, the selectivity ratio in [13] came to 10. In addition, the outcome (with Human alphaherpesvirus 1; in the data set on Human alphaherpesvirus 2; in the data set with Vaccinia virus; in data set [3]; in the data set on Human respirovirus 3; in data set [4]) was inactive. Further, the result (with Sindbis virus; in the data set with Coxsackievirus B4 [5]; in the data set with Punta Toro virus; in [6]; in [7]; in the data set on Coxsackievirus B4 [8]) was inactive. Besides, the result in the data set with Feline coronavirus, with Influenza A virus [9], with Influenza A virus [10] and with Influenza B virus was inactive.
For `Cc1ccnc(N2C(=O)CSC2CC23CC4CC(CC(C4)C2)C3)c1` (stereo not drawn), the 50% effective concentration (EC50) in [11] is 18.1 µM; in data set [12] it was 21.9 µM. The compound further showed a half-maximal cytotoxic concentration (CC50) in the data set with CCRF-CEM of 29.3 µM. Besides, in data set [13], the selectivity ratio came to 1.6. For the same compound, the outcome (in the data set on Human alphaherpesvirus 1; in the data set with Human alphaherpesvirus 2; in the data set on Vaccinia virus; in data set [3]; with Human respirovirus 3; in [4]) was inactive. The outcome (in the data set on Sindbis virus; with Coxsackievirus B4 [5]; in the data set on Punta Toro virus; in [6]; in [7]; with Coxsackievirus B4 [8]) was inactive. For the same compound, the result with Feline coronavirus, with Influenza A virus [9], with Influenza A virus [10] and in the data set on Influenza B virus was inactive.
In the case of `COc1cc(C2SCC(=O)N2CCC23CC4CC(CC(C4)C2)C3)cc(OC)c1OC` (stereo not drawn), the 50% effective concentration (EC50) in data set [11] was found to be 7.8 µM; in data set [12], 6.5 µM. In addition, the CC50 in the data set with CCRF-CEM amounted to 11.3 µM. Further, the selectivity ratio in data set [13] was determined as 1.4. The result (in the data set on Human alphaherpesvirus 1; in the data set with Human alphaherpesvirus 2; in the data set on Vaccinia virus; in data set [3]; with Human respirovirus 3; in [4]) was inactive. The outcome (with Sindbis virus; in the data set with Coxsackievirus B4 [5]; in the data set with Punta Toro virus; in [6]; in data set [7]; with Coxsackievirus B4 [8]) was inactive. The result in the data set with Feline coronavirus, in the data set on Influenza A virus [9], in the data set with Influenza A virus [10] and in the data set on Influenza B virus was inactive.
In the case of `O=C1CSC(c2c(F)cccc2Cl)N1CCC12CC3CC(CC(C3)C1)C2` (stereo not drawn), the EC50 is 3.8 µM in [11] and ≥ 10.1 µM in data set [12]. The compound further displayed a 50% cytotoxic concentration (CC50) in the data set with CCRF-CEM of 18.5 µM. For the same compound, in [13], the selectivity ratio was 4.7. Moreover, the result (in the data set on Human alphaherpesvirus 1; in the data set on Human alphaherpesvirus 2; with Vaccinia virus; in data set [3]; with Human respirovirus 3; in data set [4]) was inactive. In addition, the outcome (in the data set on Sindbis virus; with Coxsackievirus B4 [5]; in the data set on Punta Toro virus; in data set [6]; in data set [7]; with Coxsackievirus B4 [8]) was inactive. The result in the data set on Feline coronavirus, in the data set on Influenza A virus [9], in the data set on Influenza A virus [10] and in the data set on Influenza B virus was inactive.
As to `COc1cc(C2SCC(=O)N2CC23CC4CC(CC(C4)C2)C3)cc(OC)c1OC` (stereo not drawn), the half-maximal effective concentration (EC50) in data set [11] and in data set [12] was ≥ 10.9 µM throughout. In addition, the 50% cytotoxic concentration (CC50) in the data set with CCRF-CEM is 18 µM. The selectivity ratio in data set [13] was < 1.6. Moreover, the result (in the data set on Human alphaherpesvirus 1; in the data set on Human alphaherpesvirus 2; with Vaccinia virus; in data set [3]; in the data set with Human respirovirus 3; in data set [4]) was inactive. In addition, the result (with Sindbis virus; in the data set with Coxsackievirus B4 [5]; in the data set with Punta Toro virus; in [6]; in data set [7]; in the data set on Coxsackievirus B4 [8]) was inactive. Further, the result in the data set with Feline coronavirus, in the data set on Influenza A virus [9], in the data set with Influenza A virus [10] and with Influenza B virus was inactive.
With `Cc1cc(C)nc(N2C(=O)CSC2CC23CC4CC(CC(C4)C2)C3)c1` (stereo not drawn), the 50% effective concentration (EC50) in data set [11] was > 54 µM; in data set [12], ≥ 54 µM. In the data set with CCRF-CEM, the CC50 was found to be 115 µM. The selectivity ratio in [13] was < 2. The outcome (with Human alphaherpesvirus 1; with Human alphaherpesvirus 2; with Vaccinia virus; in data set [3]; in the data set on Human respirovirus 3; in data set [4]) was inactive. Besides, the result (with Sindbis virus; with Coxsackievirus B4 [5]; in the data set with Punta Toro virus; in data set [6]; in [7]; with Coxsackievirus B4 [8]) was inactive. Besides, the result with Feline coronavirus, with Influenza A virus [9], in the data set with Influenza A virus [10] and in the data set on Influenza B virus was inactive.

The values are drawn from ChEMBL document CHEMBL1152844, “Synthesis and anti-HIV studies of 2- and 3-adamantyl-substituted thiazolidin-4-ones” (Eur J Med Chem, 2009).
